The text below walks through data of patent US10799475B2, “Substituted phenyl aziridine precursor analogs for inhibiting androgen-independent prostate cancer cell growth” (Northwestern University, priority 2007, dated 2020).

One assay has as its system C8161 cells. The assay is classed as cell-based, human. Conditions: CpdA 5×10^−6 M, 72 hours.
The target of assay [1] is T1, GR (Homo sapiens, UniProt P04150).
T1 sequence (P04150 1-777): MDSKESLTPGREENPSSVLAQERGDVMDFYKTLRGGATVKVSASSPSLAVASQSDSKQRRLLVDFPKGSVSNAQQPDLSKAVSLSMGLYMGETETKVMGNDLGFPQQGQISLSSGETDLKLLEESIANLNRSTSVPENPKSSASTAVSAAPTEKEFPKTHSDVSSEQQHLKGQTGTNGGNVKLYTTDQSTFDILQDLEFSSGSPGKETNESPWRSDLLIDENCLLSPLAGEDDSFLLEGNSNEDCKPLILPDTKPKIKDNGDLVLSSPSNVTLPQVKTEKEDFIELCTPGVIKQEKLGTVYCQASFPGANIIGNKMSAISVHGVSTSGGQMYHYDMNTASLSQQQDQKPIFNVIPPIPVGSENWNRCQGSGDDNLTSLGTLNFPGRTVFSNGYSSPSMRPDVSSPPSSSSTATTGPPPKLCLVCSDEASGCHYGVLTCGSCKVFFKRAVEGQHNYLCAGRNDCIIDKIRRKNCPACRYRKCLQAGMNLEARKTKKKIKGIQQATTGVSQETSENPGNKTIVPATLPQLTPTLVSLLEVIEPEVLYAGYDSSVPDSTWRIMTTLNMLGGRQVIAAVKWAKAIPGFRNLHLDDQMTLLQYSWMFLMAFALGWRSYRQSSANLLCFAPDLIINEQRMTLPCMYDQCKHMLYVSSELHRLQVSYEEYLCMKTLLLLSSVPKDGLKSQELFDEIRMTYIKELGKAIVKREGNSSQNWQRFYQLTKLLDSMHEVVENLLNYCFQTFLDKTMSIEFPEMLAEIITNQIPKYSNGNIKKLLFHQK
Nature of the assay: GR nuclear translocation, Western blotting and immunofluorescence in LNCaP-GR cells. The assay is classed as cell-based. Further details: expressed in transfected cells; host or cells: LNCaP-GR (lentiviral GR); also DU145 and PC3 (endogenous GR). For orientation: In western blotting, separated proteins are transferred to a membrane and probed.

For another assay, the system named is B16F10 cells. The assay is classed as cell-based, mouse. Conditions: CpdA 5×10^−6 M, 72 hours.
The next assay concerns PC3 and LNCaP-GR cells. The assay is classed as cell-based, human.
A further assay relates to PC cells. The class given is cell-based, human. The conditions noted are these: 72 hours.
Assay [2] deals with T1, GR. Nature of the assay: TAT.Luc dual Luciferase assay of GR transactivation in PC cells. Also noted: expressed in transfected cells; host or cells: LNCaP-GR (lentiviral GR); also DU145 and PC3 (endogenous GR). The class given is cell-based. The conditions noted are these: LNCaP-GR, DU145 and PC3 cells, CpdA 10^−5 M, 24 hours. The procedure:
FIG. 3. Effect of CpdA on GR function in PC cells. A. & B. CpdA-activated GR nuclear translocation. Cells were treated with CpdA, glucocorticoid FA, or anti-glucocorticoid RU486. Panel A (immunofluorescence). Panel B (Western blotting of nuclear protein using HDAC-1 and β-tubulin as protein loading controls). C. CpdA decreased GR-DNA binding (EMSA, nuclear proteins). LNCaP-GR cells were treated with 0.01% DMSO (control), Dex (10^−7 M) or CpdA (10^−5 M) for 4 hours. D. & E. CpdA effect on GR function. PC cells were transiently transfected with TAT.Luc (D) or κB.Luc (E), and control Renilla Luciferase reporters, treated with Dex (10^−6 M) or CpdA (10^−5 M) for 24 hours. For activation of NF-κB, cells were co-transfected with CMV.IKKβ plasmid (in panel E). Reporter activity was assessed by dual Luciferase assay and presented as factor of change.
FIG. 4. CpdA effect on GR function. A. & B. PC cells were transiently transfected with TAT.Luc (A) or κB.Luc (B), and control Renilla Luciferase reporters. Cells were treated with Dex (10^−6 M) and CpdA (10^−5 M) for 24 hours. For activation of NF-κB (as shown in panel B), cells were co-transfected with CMV.IKKβ plasmid. Reporter activity was assessed by dual Luciferase assay and presented as factor of change. […]

The next assay relates to NF-κB. Nature of the assay: κB.Luc dual Luciferase assay of GR transrepression in PC cells. The class given is cell-based, human. Conditions: all studied prostate cells, basal and IKKβ-induced, CpdA 10^−5 M, 24 hours.
The test system of the next assay is LNCaP-GR cells. The assay is classed as cell-based, human. Conditions: monolayer and colony-forming assay, data not shown.
Assay [3] addresses T1, GR. The conditions noted are these: cited from earlier work.
A further assay has as its system LNCaP cells. The assay is classed as cell-based, human. Conditions: 5 μM CpdA, 1-12 days.

For `CNCC(Cl)c1ccc(OC(C)=O)cc1.Cl` (stereo not shown) [CpdA, 2-(4-acetoxyphenyl)-2-chloro-N-methyl-ethylammonium chloride], the figures for the growth inhibition result in the assay on C8161 cells, with B16F10 cells and in the assay on LNCaP cells were “strongly inhibited growth”, “strongly inhibited growth” and “strong growth inhibition”, respectively. Also, the GR nuclear translocation result on GR [1] is given as “induce GR nuclear import”. Further, in the assay with PC3 and LNCaP-GR cells, the “sensitivity to CpdA after GR blockage” value is “drastic loss of sensitivity”. Also, the “concentration range of strong cytostatic effect” value in the assay on PC cells is recorded as 2−10 μM. For the same compound, the “GR transcriptional activation (TAT.Luc)” value on GR [2] is “inhibit GR transcriptional activation”. Besides, the “NF-κB function (κB.Luc)” value in the assay with NF-κB is reported as “strongly inhibited”. In addition, the “sensitivity to growth inhibition vs control cells infected with empty virus” value in the assay on LNCaP-GR cells was “significantly more sensitive”. On GR [3], the “competition for GR binding” value was “competes with glucocorticoids for GR binding”.
